B1: Full-length TPX2: full-length TPX2 protein, specific activator of Aurora-A (protein, UniProt Q9ULW0 1-747, looked up)
chain: MSQVKSSYSYDAPSDFINFSSLDDEGDTQNIDSWFEEKANLENKLLGKNGTGGLFQGKTPLRKANLQQAIVTPLKPVDNTYYKEAEKENLVEQSIPSNACSSLEVEAAISRKTPAQPQRRSLRLSAQKDLEQKEKHHVKMKAKRCATPVIIDEILPSKKMKVSNNKKKPEEEGSAHQDTAEKNASSPEKAKGRHTVPCMPPAKQKFLKSTEEQELEKSMKMQQEVVEMRKKNEEFKKLALAGIGQPVKKSVSQVTKSVDFHFRTDERIKQHPKNQEEYKEVNFTSELRKHPSSPARVTKGCTIVKPFNLSQGKKRTFDETVSTYVPLAQQVEDFHKRTPNRYHLRSKKDDINLLPSKSSVTKICRDPQTPVLQTKHRARAVTCKSTAELEAEELEKLQQYKFKARELDPRILEGGPILPKKPPVKPPTEPIGFDLEIEKRIQERESKKKTEDEHFEFHSRPCPTKILEDVVGVPEKKVLPITVPKSPAFALKNRIRMPTKEDEEEDEPVVIKAQPVPHYGVPFKPQIPEARTVEICPFSFDSRDKERQLQKEKKIKELQKGEVPKFKALPLPHFDTINLPEKKVKNVTQIEPFCLETDRRGALKAQTWKHQLEEELRQQKEAACFKARPNTVISQEPFVPKKEKKSVAEGLSGSLVQEPFQLATEKRAKERQELEKRMAEVEAQKAQQLEEARLQEEEQKKEELARLRRELVHKANPIRKYQGLEIKSSDQPLTVPVSPKFSTRFHC
modifications: full-length

Assays:
Aurora + TPX2 = biological target: T1, Aurora + TPX2 (Homo sapiens, UniProt O14965); experiment: luminescence ATP detection kinase assay (EasyLite-Kinase), Aurora + TPX2; assay type: biochemical; conditions: 150 nM Aurora with TPX2, 20 μM ATP, 100 μM Kemptide, 20 min room temperature
T1 sequence (O14965 1-403): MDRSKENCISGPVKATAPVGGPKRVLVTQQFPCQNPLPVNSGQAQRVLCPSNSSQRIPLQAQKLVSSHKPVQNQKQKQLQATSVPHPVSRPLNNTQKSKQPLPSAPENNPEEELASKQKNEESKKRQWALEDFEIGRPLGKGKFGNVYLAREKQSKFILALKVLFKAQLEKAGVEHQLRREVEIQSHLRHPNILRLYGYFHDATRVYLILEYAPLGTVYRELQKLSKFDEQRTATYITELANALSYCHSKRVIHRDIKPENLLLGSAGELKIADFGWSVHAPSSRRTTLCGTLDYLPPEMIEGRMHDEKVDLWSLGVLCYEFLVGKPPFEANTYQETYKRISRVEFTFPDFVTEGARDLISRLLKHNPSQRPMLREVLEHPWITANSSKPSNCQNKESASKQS
Method: (§1) The ability of compounds (7) and (12) to inhibit Aurora A was tested in a luminescence ATP detection assay system for kinase applications. Briefly, the compound of the present invention was added to a solution of Aurora A in HEPES buffer (150 nM Aurora +/− TPX2, 25 mM HEPES pH 7.4, 5 mM MgCl2, 0.01% Tween 20; 0.1% BSA; 100 μM Kemptide [Promega Corporation, Madison, Wis.]); final assay concentrations). The addition of an ATP solution (20 μM final concentration) initiated the reaction. The reaction was carried out for 20 min at room temperature and terminated by the addition of equal volumes of EasyLite Solution (Perkin Elmer Corporation, Boston, Mass.) followed by monitoring the luminescence in a Wallac Envision plate reader (Perkin Elmer Corporation, Boston, Mass.). The EasyLite-Kinase® is an ATP monitoring system based on firely (Photinus pyralis) luciferase for the evaluation of kinase activity. The system relies on the consumption of ATP during a kinase reaction and is commercially available.

Aurora A [1] = biological target: T2, Aurora A (Homo sapiens, UniProt O14965); experiment: luminescence ATP detection kinase assay (EasyLite-Kinase), Aurora without TPX2; assay type: biochemical; conditions: for IC50: 150 nM Aurora without TPX2, 20 μM ATP, 100 μM Kemptide, 20 min room temperature
T2 sequence (O14965 1-403): T1 sequence (O14965 1-403)
Method: as §1

protein kinase A, PKA = protein kinase A, PKA (Homo sapiens, UniProt P17612); experiment: luminescence ATP detection kinase assay, PKA counter-test; assay type: biochemical
Aurora A [2] = biological target: T2, Aurora A; experiment: phosphatase assay, PP1 treatment of Aurora-A, Western blot; assay type: biochemical; conditions: TPX2 protein 3 μM, Aurora-A 2 μM, PP1 0.5 h at 30° C., FIG. 1E
Method: Samples were diluted in phosphatase buffer (50 mM Tris-HCl pH 7, 0.1 mM EDTA, 1 mM MnCl2, 5 mM caffeine, 5 mM DTT, 0.025% Tween 20) and incubated in the absence or presence of PP1 (α isoform, NEB) for 0.5 h at 30° C. Afterwards proteins were separated by SDS-PAGE and analyzed by Western blotting with anti-Aurora-A or anti-phospho-Aurora-A (Cell Signalling, 1:10000 dilution).

Aurora A [3] = biological target: T2, Aurora A; experiment: immunoprecipitation from mitotic HeLa cell extract; assay type: binding; conditions: GST fusion proteins 1 μM, FIG. 1B
Method: HeLa cells (CCL2; ATCC, Manassas, Va.) were grown in 10% fetal calf serum (FCS) and 2 mM L-glutamine in modified Eagle's medium at 37° C. and 5% CO2. Cells were arrested in S phase using a double thymidine (2 mM) block as described (Stein, 1994) and released from S phase by washing away the thymidine. After 10 h, cells were trypsinized, incubated for 10 min in ice-cold lysis buffer (25 mM Tris pH 7.6, 200 mM NaCl, 1% Triton, protease inhibitors), and centrifuged for 10 min at 15,000 g.
For coating beads with anti-GST, 6 μg of antibody were incubated with 20 μl of protein A-conjugated Dynabeads 280 (Dynal) in a total volume of 100 μl PBS-T (PBS, 0.1% Triton X-100), for at least 1 h at 4° C. The beads were washed twice with PBS-T and twice with HeLa cells lysis buffer or CSF-XB (10 mM Hepes pH 7.7, 50 mM sucrose, 100 mM KCl, 2 mM MgCl2, 0.1 mM CaCl2 and 5 mM EGTA). 50 μl extract was incubated with GST, GST TPX2 1-43, GST TPX2 15-43, GST TPX2 Xenopus or GST TPX2(1-39) Xenopus proteins (final concentrations: 250 nM Xenopus; 1 μM HeLa) in the absence or presence of RanQ69L-GTP (16 μm) for 15 minutes at 20° C. and then added to the beads. […] The samples were then subjected to gel electrophoresis and analyzed by Western blotting with anti-GST, anti-Xenopus TPX2, anti-Xenopus Aurora-A or anti-human Aurora-A.

Aurora A [4] = biological target: T2, Aurora A; experiment: in vitro kinase assay, phosphorylation of histone H3 (autoradiography); assay type: biochemical; parameters: were incubated with full length Aurora-A or AuroraΔN in kinase buffer; made in house; host or cells: bacteria (printed only for the full-length protein used as immunogen); conditions: full length Aurora-A, TPX2 protein at 4 μM, FIG. 1C

Molecule | IC50 (Aurora + TPX2) | inhibition of Aurora (in words) (Aurora A [1]) | IC50 (Aurora A [1]) | IC50 (protein kinase A, PKA) | protection of Aurora-A from dephosphorylation by PP1 (Aurora A [2]) | interaction with Aurora-A in HeLa extract (Aurora A [3]) | stimulation of histone H3 phosphorylation by Aurora-A (Aurora A [4])
OCc1cn(CCCCc2ccccn2)c2ccc(Oc3ccc(O)cc3)cc12 [(7)] | > 500 µM | inhibited Aurora significantly | 79 µM | > 500 µM | – | – | –
COC(=O)C(CC(=O)NCc1cn(CCCCc2ccccn2)c2ccc(Oc3ccc(O)cc3)cc12)NC(C)=O (stereo not drawn) [(12), 3-N-aspartylaminomethyl-5-O-p-hydroxyphenyl-1-N-(4-pyridylbutyl)-indole] | 37 µM | inhibited Aurora significantly | 37 µM | > 500 µM | – | – | –
TPX2(15-43): shorter construct of human TPX2 encompassing residues 15-43 (DFINFSSLDDEGDTQNIDSWFEEKANLEN) | – | – | – | – | fully dephosphorylated as in the absence of TPX2 altogether | unable to do so | –
B1 | – | – | – | – | prevents dephosphorylation of Thr288AUR | – | increases the activity of the kinase, but appears less effective than the fragment
